Results reported in article PMC8175240, “Integrase-derived peptides together with CD24-targeted lentiviral particles inhibit the growth of CD24 expressing cancer cells” (Oncogene, 2021).
Values after ≈ are worked out from the molar mass of the structure shown. Residues, ends and D or L forms follow the SMILES beside them.

How the values were obtained:
H1975 lung cancer cells [1] = experiment: Cytotoxicity of peptides without lentiviral particles, MTT; format: cell-based, human; settings: peptide alone, three times over ten days
Protocol: H1975 lung cancer cells were treated three times over the course of 10 days (on days 2, 4, and 7) with different concentrations of the tested peptides. Following ten days of incubation, cells were analyzed for potential toxicity using a quantitative cell viability test, the MTT assay.

[2] = Solubility of IN-derived peptides in rat plasma; format: physicochemical; settings: LC-MS
Protocol: (§1) Analytic HPLC-MS was performed using an Agilent 1260 series Liquid Chromatography/Mass Selective Detector (MSD) equipped with an electrospray interface and a UV diode array detector. Analyses were performed on an ACE C8, 50 × 3.0 mm, 3 µm column, with an isocratic 0.1% formic acid/ACN eluent, at a rate of 1 ml/min over a period of 5 min. UV absorption was measured at 280 nm, 220 nm, and 215–395 nm. MS analysis was performed with ESI (electron spray ionization) with a positive ionization method.
(§2) Four reaction systems were prepared; INS and INR2 in human plasma, INS and INR2 in rat plasma (Supplementary Table 2). Freshly prepared 10 mg/ml stock solution of the peptides was injected into plasma or PBS solution (1:1). The mixture was diluted with methanol to precipitate the plasma proteins. The samples were filtered through PTFE 0.45 µm filters and run in LC-MS. Samples were taken at the following times: 0, 15, 30, 60, 120, 240, and 480 min and after 24 h.
(§3) Plasma solubility was determined at 0 min and was verified at 60 min (if no degradation was observed).

[3] = Solubility of IN-derived peptides in PBS; format: physicochemical; settings: for Solubility: at 0 min, verified at 60 min, LC-MS
Protocol: as §1, §2, §3

[4] = Stability test in human plasma; format: in vitro ADME; settings: for Analyte Remaining % / Concentration calculated from LC-MS data: human plasma, 10 mg/ml stock into plasma 1:1, LC-MS; for Concentration calculated from LC-MS data: methanol precipitation, 0.45 µm filtration
Protocol: as §1, §2

[5] = Stability test in rat plasma; format: in vitro ADME; settings: for Analyte Remaining %: 10 mg/ml stock into plasma 1:1, LC-MS; for Concentration calculated from LC-MS data: 10 mg/ml stock into plasma 1:1, methanol precipitation, 0.45 µm filtration
Protocol: as §1, §2

[6] = Solubility of IN-derived peptides in human plasma; format: physicochemical; settings: LC-MS
Protocol: as §1, §2, §3

[7] = tested on: CD24 expressing cancer cells; format: cell-based, human; settings: abstract
Panc-1 cells = experiment: Cell survival after CD24-targeted lentivirus plus peptide, WST-1; format: cell-based, human; settings: Raltegravir added to LV-CD24 plus INS or INR2
Protocol: (§4) The cell-killing effect of the system was measured by the MTT3-(4,5-dimethylthiazol-2-yl)-2,5-diphenyltetrazoliumenzymatic assay or by 2-(4-iodophenyl)-3-(4-nitrophenyl)-5-(2,4-disulfophenyl)-2H-tetrazolium (WST-1) assay. Two thousand cultured cells were seeded onto 96-well plates (in culture media, DMEM, or RPMI). After 24 h, different concentrations of the diverse peptides (and inhibitors) were added for 3 h. Thirty MOI of the targeted lentiviral particles were added to the cells and the plates centrifuged for 90 min at 800×g, 20 °C. Three and six days later, this procedure (peptides/inhibitor and LV treatments) was repeated. On the tenth day, cell viability was analyzed either by MTT or by WST-1; the media was replaced by fresh media (100 μl per well) containing 1 mg/ml MTT, and the cells were incubated for 2–4 more hours. MTT-formazan crystals were dissolved by the addition of extraction solution (0.1 N HCl in absolute isopropanol). Absorbance at 570 nm and a reference wavelength of 690 nm was recorded on an automated microplate reader. For WST-1, media was replaced and WST-1 was added directly to the culture wells followed by incubation of 10–60 min at 37 °C. Plates were read by an automated microplate reader by measuring the absorbance of the dye with a wavelength of 450 nm and a reference wavelength of 630 nm.

H1975 cells = experiment: Cell survival after CD24-targeted lentivirus plus peptide, MTT; format: cell-based, human; settings: Raltegravir added to LV-CD24 plus INS or INR2
Protocol: as §4

H1975 lung cancer cells [8] = experiment: Microscopic observation of GFP incorporation; format: cell-based, human; settings: 30 MOI LV-CD24 and 25 µM INS with 50 µM Raltegravir; 24 h post-treatment
Protocol: Fig. 2 The effect of IN-derived peptides on cell survival. A Schematic illustration of the treatment protocol. B Microscopic observation of the GFP incorporation inhibition by Raltegravir. H1975 lung cancer cells were exposed to 30 MOI LV-CD24 and 25 µM INS with or without the addition of 50 µM Raltegravir. Images were taken 24 h post-treatment. C 2000 Panc-1 (left) and H1975 (right) cells were seeded in 96-well plates and were treated with the different items as described. Cell survival was measured by the enzymatic WST-1 (left) and MTT assays (right). % Survival was calculated as the percentage of living cells remaining after treatment with respect to non-treated cells.

CHO-WBL cells = experiment: Chromosomal aberration assay (genotoxicity); format: cell-based, Chinese hamster; settings: CP 2.5, +S9, 3 h treatment, harvest 22 h
Protocol: All cells were cultured for 22 h after initiation of INS treatment.

[9] = from 5 mg/mL sample (10 mg/ml stock into plasma 1:1), at 0 min, verified at 60 min, methanol precipitation, PTFE 0.45 µm filtration

Question: Which “Effect on lung cancer cell viability” value (H1975 lung cancer cells [1]) does the source give for CC(C)[C@H](NC(=O)[C@@H](NC(=O)[C@@H](NC(=O)[C@H](CO)NC(=O)[C@@H](NC(=O)[C@H](Cc1ccccc1)NC(=O)[C@H](CC(N)=O)NC(=O)[C@H](CO)NC(=O)CNC(=O)[C@@H](N)Cc1c[nH]c2ccccc12)[C@@H](C)O)[C@@H](C)O)[C@@H](C)O)C(=O)N[C@@H](CCCCN)C(=O)N[C@@H](C)C(=O)O [INR] (H-WGSNFTSTTVKA-OH) here?
Answer: Its value is “no effect”.

Question: And the Solubility ([2]; % of 5 mg/mL sample)?
Answer: Its Solubility is 42.6%.

Question: And the Solubility [2, 9]?
Answer: Its Solubility is 2.13 mg/mL (≈ 1640 µM).

Question: What about the Solubility ([3]; % of 5 mg/mL sample) of the same molecule?
Answer: The Solubility was 66.2%.

Question: What about the Solubility ([3]; from 5 mg/mL sample (10 mg/ml stock into PBS 1:1), methanol dilution, PTFE 0.45 µm filtration) of the same molecule?
Answer: The Solubility was 3.31 mg/mL (≈ 2550 µM).

Question: And the “Solubility (in words)” value ([3]; rat and human plasma)?
Answer: The value was “highly soluble”.

Question: What about the “Stability” value ([4]; both types of sera (rat and human plasma), for the entire 24 h) of the same molecule?
Answer: Its value is 40%.

Question: And the “Analyte Remaining %” value ([4]; 0 h)?
Answer: The value was 40.9%.

Question: And the “Concentration calculated from LC-MS data” value ([4]; 0 h)?
Answer: The value was 2050 µg/mL.

Question: And the “Analyte Remaining %” value ([4]; 0.25 h)?
Answer: Its value is 40.3%.

Question: And the “Concentration calculated from LC-MS data” value ([4]; 0.25 h)?
Answer: Its value is 2020 µg/mL.

Question: What about the “Analyte Remaining %” value ([4]; 0.5 h) of the same molecule?
Answer: Its value is 45.3%.

Question: What about the “Concentration calculated from LC-MS data” value ([4]; 0.5 h) of the same molecule?
Answer: The value was 2270 µg/mL.

Question: What about the “Analyte Remaining %” value ([4]; 1 h) of the same molecule?
Answer: The value was 47.3%.

Question: What about the “Concentration calculated from LC-MS data” value ([4]; 1 h) of the same molecule?
Answer: Its value is 2370 µg/mL.

Question: What about the “Analyte Remaining %” value ([4]; 2 h) of the same molecule?
Answer: Its value is 39.2%.

Question: What about the “Concentration calculated from LC-MS data” value ([4]; 2 h) of the same molecule?
Answer: Its value is 1960 µg/mL.

Question: And the “Analyte Remaining %” value ([4]; 4 h)?
Answer: Its value is 41.2%.

Question: And the “Concentration calculated from LC-MS data” value ([4]; 4 h)?
Answer: The value was 2060 µg/mL.

Question: What about the “Analyte Remaining %” value ([4]; 8 h) of the same molecule?
Answer: Its value is 38.3%.

Question: And the “Concentration calculated from LC-MS data” value ([4]; 8 h)?
Answer: The value was 1910 µg/mL.

Question: And the “Analyte Remaining %” value ([4]; 24 h)?
Answer: Its value is 38.9%.

Question: And the “Concentration calculated from LC-MS data” value ([4]; 24 h)?
Answer: Its value is 1950 µg/mL.

Question: What about the “Stability” value ([4]; rat and human plasma, ~4 h incubation) of the same molecule?
Answer: The value was 40%.

Question: And the “Analyte Remaining %” value ([5]; 0 h)?
Answer: The value was 41.8%.

Question: What about the “Concentration calculated from LC-MS data” value ([5]; 0 h) of the same molecule?
Answer: Its value is 2090 µg/mL.

Question: What about the “Analyte Remaining %” value ([5]; 0.25 h) of the same molecule?
Answer: Its value is 51.1%.

Question: What about the “Concentration calculated from LC-MS data” value ([5]; 0.25 h) of the same molecule?
Answer: The value was 2560 µg/mL.

Question: And the “Analyte Remaining %” value ([5]; 0.5 h)?
Answer: The value was 34.3%.

Question: What about the “Concentration calculated from LC-MS data” value ([5]; 0.5 h) of the same molecule?
Answer: The value was 1710 µg/mL.

Question: And the “Analyte Remaining %” value ([5]; 1 h)?
Answer: The value was 43.5%.

Question: And the “Concentration calculated from LC-MS data” value ([5]; 1 h)?
Answer: The value was 2170 µg/mL.

Question: And the “Analyte Remaining %” value ([5]; 2 h)?
Answer: Its value is 43.6%.

Question: And the “Concentration calculated from LC-MS data” value ([5]; 2 h)?
Answer: Its value is 2180 µg/mL.

Question: What about the “Analyte Remaining %” value ([5]; 4 h) of the same molecule?
Answer: Its value is 38.2%.

Question: What about the “Concentration calculated from LC-MS data” value ([5]; 4 h) of the same molecule?
Answer: The value was 1910 µg/mL.

Question: And the “Analyte Remaining %” value ([5]; 8 h)?
Answer: Its value is 35.3%.

Question: What about the “Concentration calculated from LC-MS data” value ([5]; 8 h) of the same molecule?
Answer: The value was 1760 µg/mL.

Question: And the “Analyte Remaining %” value ([5]; 24 h)?
Answer: The value was 36.9%.

Question: What about the “Concentration calculated from LC-MS data” value ([5]; 24 h) of the same molecule?
Answer: Its value is 1840 µg/mL.

Question: What about the Solubility ([6]; % of 5 mg/mL sample) of the same molecule?
Answer: Its Solubility is 44.2%.

Question: And the Solubility [6, 9]?
Answer: The Solubility was 2.21 mg/mL (≈ 1700 µM).

Question: With Cc1nnc(C(=O)NC(C)(C)c2nc(C(=O)NCc3ccc(F)cc3)c(O)c(=O)n2C)o1 [Raltegravir] as the molecule, how does the “Effect on induction of apoptosis” value [7] read?
Answer: The value was “inhibited the induction of apoptosis”.

Question: What about the “Effect on cell death induced by LV plus peptide” value (Panc-1 cells) of the same molecule?
Answer: The value was “successfully suppressed the observed cell death”.

Question: What about the “Effect on cell death induced by LV plus peptide” value (H1975 cells) of the same molecule?
Answer: The value was “successfully suppressed the observed cell death”.

Question: And the “Effect on GFP fluorescence of INS-treated cells” value (H1975 lung cancer cells [8])?
Answer: The value was “nearly eliminated”.

Question: Which “% Gaps” value (CHO-WBL cells) does the source give for O=P1(N(CCCl)CCCl)NCCCO1 (stereo not shown) [CP, cyclophosphamide monohydrate, reference compound] here?
Answer: The value was 4.0%.

Question: And the “% Structural aberration without gaps” value (CHO-WBL cells)?
Answer: The value was 47.0%.

Question: And the “Cells with endoreduplication (%)” value (CHO-WBL cells)?
Answer: Its value is 3.0%.

Question: And the “Cells with polyploidy (%)” value (CHO-WBL cells)?
Answer: The value was 0.0%.

Question: What about the “Cytotoxicity (%)” value (CHO-WBL cells; cell growth inhibition relative to negative control) of the same molecule?
Answer: Its value is 50%.

Question: And the “% Structural aberrant cells” value (CHO-WBL cells; cells with only gaps not included, *p ≤ 0.05 Fisher's Exact test)?
Answer: The value was 35.0* %.
